Data from patent US9708336B2, “Metallo-beta-lactamase inhibitors” (priority 2014, dated 2017).
Like-named read-outs stand apart in the source and are kept apart here.

Columns and labels:
NDM-1 = NDM-1 (Klebsiella pneumoniae, UniProt C7C422); assay: biochemical; format: biochemical
[1] = system: Escherichia coli expressing NDM-1 (CLB30016); assay: Antibiotic potentiation activity: synergistic concentration (MITC95) with imipenem, OD600 growth; format: cell-based; conditions: for Escherichia coli expressing NDM-1 (CLB 30016) MITC95: concentration giving 95% inhibition of bacterial growth; for Escherichia coli MITC95: 95% growth inhibition
Method in brief: (§1)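 Steps: colonies grown overnight at 35 °C; resuspended in saline to OD600 0.11–0.15 by strain; diluted 1:100 into 1.1× CAMHB; imipenem then compound added (antibiotic 4 μg/ml in assay); incubated 35 °C for 22–24 h; absorbance measured.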

[2] = system: Serratia marcescens expressing IMP-1 (CL5741); assay: as above; format: cell-based; conditions: for Serratia marcescens expressing IMP-1 (CL5741) MITC95: concentration giving 95% inhibition of bacterial growth; for Serratia marcescens MITC95: 95% growth inhibition
Method in brief: as §1

[3] = system: Klebsiella pneumoniae expressing VIM-1 (IHMA599644); assay: as above; format: cell-based; conditions: for Klebsiella pneumoniae expressing VIM-1 (IHMA 599644) MITC95: concentration giving 95% inhibition of bacterial growth; for Klebsiella pneumoniae MITC95: 95% growth inhibition
Method in brief: as §1

IMP-1 = IMP-1 (Serratia marcescens, UniProt P52699); assay: biochemical; format: biochemical; conditions: read-out: IMP-1 IC50
Sequence of IMP-1 (P52699 whole entry, looked up): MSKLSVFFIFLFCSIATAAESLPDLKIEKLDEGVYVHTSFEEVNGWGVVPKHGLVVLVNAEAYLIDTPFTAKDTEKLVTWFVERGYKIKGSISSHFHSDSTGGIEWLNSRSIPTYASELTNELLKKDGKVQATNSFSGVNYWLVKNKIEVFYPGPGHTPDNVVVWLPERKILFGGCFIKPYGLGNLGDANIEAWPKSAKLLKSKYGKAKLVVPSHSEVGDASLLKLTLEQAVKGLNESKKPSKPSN
Procedure: Enzyme Activity: Determination of IC50
The Class B enzyme activities were measured in the presence of the test inhibitor in a fluorescence assay against a commercially available substrate consisting of a cephalosporin core linking 7-hydroxycoumarin to fluorescein (CCF2-FA). The enzyme (NDM-1, IMP-1 or VIM-1) and the substrate were diluted in 100 mM KH2PO4 buffer (pH 7) containing 0.005% Tween-20 and 10 μM ZnSO4. […] The test inhibitor was dissolved in dimethylsulfoxide and diluted 1:50 in the assay, resulting in a final concentration range of 20 uM to 0.00063 uM. In a 384-well microplate, the test inhibitor was incubated with the metallo-β-lactamase enzyme and the substrate for 2 hours at 25° C. Fluorescence at 460 nm following excitation at 405 nm was measured. The IC50 value was determined from semi-logarithmic plots of enzyme inhibition versus inhibitor concentration, with a curve generated using a 4-parameter fit.

VIM-1 = VIM-1 (Pseudomonas aeruginosa (strain ATCC 15692 / DSM 22644 / CIP 104116 / JCM 14847 / LMG 12228 / 1C / PRS 101 / PAO1), UniProt A0A0F7KYQ8); assay: Enzyme activity: determination of IC50, fluorescence assay with CCF2-FA substrate (VIM-1); format: biochemical; conditions: read-out: VIM-1 IC50
[4] = fluorescence assay with CCF2-FA substrate, read-out: NDM-1 IC50
[5] = fluorescence assay with CCF2-FA substrate
[6] = NDM-1 enzyme, CCF2-FA fluorescence assay, read-out: NDM-1 IC50
[7] = Escherichia coli expressing NDM-1 (CLB30016)
[8] = Serratia marcescens expressing IMP-1 (CL5741)
[9] = Klebsiella pneumoniae expressing VIM-1 (IHMA599644)
[10] = IMP-1 enzyme, CCF2-FA fluorescence assay
[11] = VIM-1 enzyme, CCF2-FA fluorescence assay
[12] = NDM-1 enzyme, CCF2-FA substrate, read-out: NDM-1 IC50
[13] = Serratia marcescens CL5741 (IMP-1)
[14] = Klebsiella pneumoniae IHMA599644 (VIM-1)
[15] = IMP-1 enzyme, CCF2-FA substrate
[16] = VIM-1 enzyme, CCF2-FA substrate

Sequence of NDM-1 (C7C422 whole entry, looked up, species assumed): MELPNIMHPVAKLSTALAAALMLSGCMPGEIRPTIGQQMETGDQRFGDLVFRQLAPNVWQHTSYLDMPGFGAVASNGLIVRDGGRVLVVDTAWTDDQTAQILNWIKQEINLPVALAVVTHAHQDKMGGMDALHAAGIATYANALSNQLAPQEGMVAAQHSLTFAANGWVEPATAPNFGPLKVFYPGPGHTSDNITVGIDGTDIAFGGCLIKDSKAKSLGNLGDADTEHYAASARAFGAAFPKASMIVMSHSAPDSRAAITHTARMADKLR

Q: `NS(=O)(=O)c1nccc(N2CCC(Oc3ncccn3)CC2)c1-c1nnn[nH]1` [Example 231, 4-[4-(pyrimidin-2-yloxy)piperidin-1-yl]-3-(1H-tetrazol-5-yl)pyridine-2-sulfonamide] was tested. Which IC50 (NDM-1; [4]) did it give?
A: 10.8 nM

Q: What about the “Escherichia coli expressing NDM-1 (CLB 30016) MITC95” value [1] of the same compound?
A: 4.688 µM

Q: And the “Serratia marcescens expressing IMP-1 (CL5741) MITC95” value [2]?
A: 18.75 µM

Q: What about the “Klebsiella pneumoniae expressing VIM-1 (IHMA 599644) MITC95” value [3] of the same compound?
A: >200 µM

Q: And the IC50 (IMP-1; [5])?
A: 423 nM

Q: And the IC50 (VIM-1; [5])?
A: 326 nM

Q: What does the source list for `Nc1ccc(CCc2cccc(S(N)(=O)=O)c2-c2nn[nH]n2)cn1` [Example 427, 3-(2-(6-aminopyridin-3-yl)ethyl)-2-(2H-tetrazol-5-yl)benzenesulfonamide]?
A: IC50 (NDM-1; [6]): 29.8 nM; Escherichia coli MITC95 [1, 7]: 0.25 µM; Serratia marcescens MITC95 [2, 8]: 4.688 µM; Klebsiella pneumoniae MITC95 [3, 9]: 75 µM; IC50 (IMP-1; [10]): 109 nM; IC50 (VIM-1; [11]): 450 nM

Q: Which IC50 (NDM-1; [6]) does the source give for `NS(=O)(=O)c1c(C(F)(F)F)ccc(C2CCCC2)c1-c1nnn[nH]1` [Example 490, 3-cyclopentyl-2-(1H-tetrazol-5-yl)-6-(trifluoromethyl)benzenesulfonamide] here?
A: 2.57 nM

Q: What about the “Escherichia coli MITC95” value [1, 7] of the same compound?
A: 1.281 µM

Q: What about the “Serratia marcescens MITC95” value [2, 8] of the same compound?
A: 0.375 µM

Q: What about the “Klebsiella pneumoniae MITC95” value [3, 9] of the same compound?
A: 9.375 µM

Q: And the IC50 (IMP-1; [10])?
A: 5.61 nM

Q: What about the IC50 (VIM-1; [11]) of the same compound?
A: 2.35 nM

Q: Which IC50 (NDM-1; [12]) does the source give for `N[C@@]1(c2ccc(-c3ccc(C(F)(F)F)c(S(N)(=O)=O)c3-c3nn[nH]n3)cc2)CCNC1` [Example 548, 3-[4-[(3R)-3-aminopyrrolidin-3-yl]phenyl]-2-(2H-tetrazol-5-yl)-6-(trifluoromethyl)benzenesulfonamide] here?
A: 7.54 nM

Q: What about the “Escherichia coli MITC95” value ([1]; (CLB30016, NDM-1)) of the same compound?
A: 3.125 µM

Q: And the “Serratia marcescens MITC95” value [2, 13]?
A: 3.125 µM

Q: And the “Klebsiella pneumoniae MITC95” value [3, 14]?
A: 1.563 µM

Q: And the IC50 (IMP-1; [15])?
A: 10.5 nM

Q: And the IC50 (VIM-1; [16])?
A: 0.519 nM

Q: For `CCN1CCC(NCc2ccc(-c3cccc(S(N)(=O)=O)c3-c3nnn[nH]3)cc2)CC1` [Example 352, 4′-{[(1-ethylpiperidin-4-yl)amino]methyl}-2-(1H-tetrazol-5-yl)biphenyl-3-sulfonamide], which IC50 (NDM-1; [6]) is on record?
A: 38 nM

Q: And the “Escherichia coli MITC95” value [1, 7]?
A: 1.563 µM

Q: And the “Serratia marcescens MITC95” value [2, 8]?
A: 6.25 µM

Q: And the “Klebsiella pneumoniae MITC95” value [3, 9]?
A: >200 µM

Q: And the IC50 (IMP-1; [10])?
A: 547 nM

Q: And the IC50 (VIM-1; [11])?
A: 916 nM

Q: Which results are given for `Nc1nc2c(-c3cccc(S(N)(=O)=O)c3-c3nnn[nH]3)cccc2s1` [Example 134, 3-(2-aminobenzo[d]thiazol-4-yl)-2-(1H-tetrazol-5-yl)benzenesulfonamide]?
A: IC50 (NDM-1; [4]): 0.28 nM; Escherichia coli expressing NDM-1 (CLB 30016) MITC95 [1]: 0.5859 µM; Serratia marcescens expressing IMP-1 (CL5741) MITC95 [2]: 0.7813 µM; Klebsiella pneumoniae expressing VIM-1 (IHMA 599644) MITC95 [3]: 3.125 µM; IC50 (IMP-1; [5]): 22.6 nM; IC50 (VIM-1; [5]): 11.1 nM

Q: For `CC(N[C@H]1CC[C@H](c2ccc(C(F)(F)F)c(S(N)(=O)=O)c2-c2nnn[nH]2)CC1)C1CCNCC1` (stereo partly drawn) [Example 683, 3-{4-[(1-piperidin-4-ylethyl)amino]cyclohexyl}-2-(1H-tetrazol-5-yl)-6-(trifluoromethyl)benzene sulfonamide], which IC50 (NDM-1; [12]) is on record?
A: 31.5 nM

Q: And the “Escherichia coli MITC95” value ([1]; (CLB30016, NDM-1))?
A: 3.125 µM

Q: What about the “Serratia marcescens MITC95” value [2, 13] of the same compound?
A: 12.5 µM

Q: And the “Klebsiella pneumoniae MITC95” value [3, 14]?
A: 50 µM

Q: What about the IC50 (IMP-1; [15]) of the same compound?
A: 154 nM

Q: And the IC50 (VIM-1; [16])?
A: 28.1 nM

Q: With `N=C(N)NC[C@H]1CC[C@@H](c2ccc(C(F)(F)F)c(S(N)(=O)=O)c2-c2nnn[nH]2)CC1` [Example 502, 3-(cis 4-(guanidinomethyl)cyclohexyl)-2-(1H-tetrazol-5-yl)-6-(trifluoromethyl)benzenesulfonamide] as the compound, how does the IC50 (NDM-1) read?
A: 0.52 nM

Q: What about the “Escherichia coli MITC95” value ([1]; (CLB30016, NDM-1)) of the same compound?
A: 1.563 µM

Q: What about the “Serratia marcescens MITC95” value [2, 13] of the same compound?
A: 1.563 µM

Q: And the “Klebsiella pneumoniae MITC95” value [3, 14]?
A: 9.375 µM

Q: What about the IC50 (IMP-1; [15]) of the same compound?
A: 1.19 nM

Q: And the IC50 (VIM-1; [16])?
A: 1.44 nM
